Assay [1] has as its target Sphingosine 1-phosphate receptor 2 (Homo sapiens, UniProt O95136). Briefly: Dose Response Cell Based Assay for Agonists of the S1P2 Receptor of Purchased Analogues. [Related pubchem assays: 729, 843, 854, 736 ]. The class given is functional.
The nature of assay [2]: viability of uninfected HEp-2 cells – cell-based, HTS, cytotoxicity control for RSV inhibitor project, dose response (AID 2410). The class given is functional. Conditions: human respiratory syncytial virus.
A short description of assay [3]: antiviral protection against BTV-induced cell death – arbovirus, BSR cells, confirmation (AID 1250).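 Note: protection from viral cytopathic effect measured as cell viability by ATP luminescence.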 The class given is functional.
In assay [4] the target is Protein-tyrosine kinase 2-beta (Homo sapiens, UniProt Q14289).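 Note: potency of inhibitors of PYK2 kinase phosphorylation of poly-GT substrate.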
Assay [5] has as its target T1, Type-1 angiotensin II receptor (Homo sapiens, UniProt P30556).
T1 sequence (P30556 whole entry): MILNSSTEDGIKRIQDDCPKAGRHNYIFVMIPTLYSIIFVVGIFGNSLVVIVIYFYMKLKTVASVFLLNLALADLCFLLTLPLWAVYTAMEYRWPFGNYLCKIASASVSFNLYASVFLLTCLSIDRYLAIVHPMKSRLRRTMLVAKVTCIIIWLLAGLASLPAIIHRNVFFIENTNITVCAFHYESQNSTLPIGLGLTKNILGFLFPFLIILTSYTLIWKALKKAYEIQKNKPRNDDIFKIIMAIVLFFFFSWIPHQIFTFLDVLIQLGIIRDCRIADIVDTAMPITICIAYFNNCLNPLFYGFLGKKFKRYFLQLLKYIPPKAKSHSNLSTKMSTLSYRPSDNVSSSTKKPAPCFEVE
In words: antagonism of angiotensin II type 1 receptor – cell-based, uHTS hits, selectivity assay for APJ receptor antagonist project, dose response (AID 463214).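 Note: antagonist potency against angiotensin II stimulated AT1 response.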 The format is functional.

The target in a further assay is Beta-galactosidase (Escherichia coli, UniProt Q8VNN2). Briefly: PubChem AID 485352. The class given is functional.
Chain of Beta-galactosidase (Q8VNN2 whole entry): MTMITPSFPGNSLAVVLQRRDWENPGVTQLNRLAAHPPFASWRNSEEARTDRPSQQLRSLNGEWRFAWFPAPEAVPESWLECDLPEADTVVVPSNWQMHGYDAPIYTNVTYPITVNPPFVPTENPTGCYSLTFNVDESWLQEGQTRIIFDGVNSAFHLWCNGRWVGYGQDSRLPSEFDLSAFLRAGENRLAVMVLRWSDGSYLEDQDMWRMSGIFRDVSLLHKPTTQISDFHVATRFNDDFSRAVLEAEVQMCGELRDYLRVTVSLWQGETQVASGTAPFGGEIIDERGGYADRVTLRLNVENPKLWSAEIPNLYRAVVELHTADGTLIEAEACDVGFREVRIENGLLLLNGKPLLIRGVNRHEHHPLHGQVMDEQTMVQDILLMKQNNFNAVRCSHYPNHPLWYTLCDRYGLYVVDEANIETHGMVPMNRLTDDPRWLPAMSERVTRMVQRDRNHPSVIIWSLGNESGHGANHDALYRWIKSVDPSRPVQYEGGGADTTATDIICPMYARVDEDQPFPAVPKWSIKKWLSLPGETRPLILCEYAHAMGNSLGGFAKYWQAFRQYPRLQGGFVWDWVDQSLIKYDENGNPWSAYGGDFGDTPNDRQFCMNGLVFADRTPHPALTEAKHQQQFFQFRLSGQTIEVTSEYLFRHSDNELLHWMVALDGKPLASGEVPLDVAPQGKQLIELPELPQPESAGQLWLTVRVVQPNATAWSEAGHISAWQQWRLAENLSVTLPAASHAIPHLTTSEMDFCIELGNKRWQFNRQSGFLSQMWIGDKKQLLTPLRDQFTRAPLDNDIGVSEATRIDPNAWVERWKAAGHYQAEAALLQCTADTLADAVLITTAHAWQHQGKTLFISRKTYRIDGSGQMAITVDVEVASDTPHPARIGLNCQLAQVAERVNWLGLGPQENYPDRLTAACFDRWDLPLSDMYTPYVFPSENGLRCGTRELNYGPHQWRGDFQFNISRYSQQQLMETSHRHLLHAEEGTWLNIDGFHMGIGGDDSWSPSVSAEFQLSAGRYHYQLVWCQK
The target of another assay is Cytochrome P450 2C19 (Homo sapiens, UniProt P33261). In words: Cytochrome panel assay with activity outcomes. Panel member name: p450-cyp2c19 Compounds with AC50 equal or less than 10 uM are considered active. The format is functional. Conditions: read-out: AC50.
Chain of Cytochrome P450 2C19 (P33261 whole entry): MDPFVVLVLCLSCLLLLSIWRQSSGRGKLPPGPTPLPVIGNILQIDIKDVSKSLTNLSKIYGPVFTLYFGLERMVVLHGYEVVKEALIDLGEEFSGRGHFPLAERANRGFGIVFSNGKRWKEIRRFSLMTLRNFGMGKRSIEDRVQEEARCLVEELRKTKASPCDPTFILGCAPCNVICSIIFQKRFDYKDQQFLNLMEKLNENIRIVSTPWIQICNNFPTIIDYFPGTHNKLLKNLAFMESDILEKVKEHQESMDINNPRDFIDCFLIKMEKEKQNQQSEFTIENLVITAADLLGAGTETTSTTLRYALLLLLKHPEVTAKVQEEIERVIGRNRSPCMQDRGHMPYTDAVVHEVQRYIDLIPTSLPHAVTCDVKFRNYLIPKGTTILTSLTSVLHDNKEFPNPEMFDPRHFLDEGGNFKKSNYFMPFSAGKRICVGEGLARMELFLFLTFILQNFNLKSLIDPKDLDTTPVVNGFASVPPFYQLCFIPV
The target in another assay is Procathepsin L (Homo sapiens, UniProt P07711). Briefly: CTSL1 protease inhibition – biochemical, QFRET, 1536-well, counter-screen for M1/M17 aminopeptidase inhibitor project, dose response (AID 2214).
Chain of Procathepsin L (P07711 whole entry): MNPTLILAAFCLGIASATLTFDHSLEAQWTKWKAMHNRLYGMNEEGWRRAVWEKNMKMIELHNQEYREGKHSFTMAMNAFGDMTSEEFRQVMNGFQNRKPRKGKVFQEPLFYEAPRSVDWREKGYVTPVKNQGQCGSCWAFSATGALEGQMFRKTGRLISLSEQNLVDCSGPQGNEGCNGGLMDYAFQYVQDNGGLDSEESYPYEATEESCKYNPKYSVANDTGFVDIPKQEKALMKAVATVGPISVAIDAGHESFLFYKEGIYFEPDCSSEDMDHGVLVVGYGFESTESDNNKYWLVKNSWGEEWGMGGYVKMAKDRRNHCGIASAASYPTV
The next assay deals with T2, Leucine aminopeptidase (Plasmodium falciparum 3D7, UniProt Q8IL11).
T2 sequence (Q8IL11 whole entry): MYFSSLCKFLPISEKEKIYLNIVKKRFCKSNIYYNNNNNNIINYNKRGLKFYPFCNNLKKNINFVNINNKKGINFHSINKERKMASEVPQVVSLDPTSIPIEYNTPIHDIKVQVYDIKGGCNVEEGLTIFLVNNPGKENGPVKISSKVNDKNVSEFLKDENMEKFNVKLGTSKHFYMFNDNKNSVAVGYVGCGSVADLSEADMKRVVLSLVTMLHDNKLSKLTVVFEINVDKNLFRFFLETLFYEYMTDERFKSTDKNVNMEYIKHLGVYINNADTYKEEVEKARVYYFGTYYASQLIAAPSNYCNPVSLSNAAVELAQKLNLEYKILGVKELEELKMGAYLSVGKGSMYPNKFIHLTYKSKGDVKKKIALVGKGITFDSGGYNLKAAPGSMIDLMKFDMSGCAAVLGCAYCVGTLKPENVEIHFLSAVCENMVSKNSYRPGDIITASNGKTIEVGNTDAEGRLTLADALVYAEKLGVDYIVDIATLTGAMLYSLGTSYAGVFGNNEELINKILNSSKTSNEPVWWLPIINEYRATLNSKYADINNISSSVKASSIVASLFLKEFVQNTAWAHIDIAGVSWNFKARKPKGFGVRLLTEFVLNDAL
In words: P. falciparum M17LAP inhibitors, primary screen, biochemical, fluorogenic H-Leu-NHMec substrate, 1536-well (AID 1619). The class given is functional.

In another assay the target is Aspartyl aminopeptidase (Plasmodium falciparum 3D7, UniProt Q8I2J3). Briefly: Counterscreen for inhibitors of M1 and M17 aminopeptidases: QFRET-based biochemical high throughput dose response assay for inhibitors of the Plasmodium falciparum M18 Aspartyl Aminopeptidase (PFM18AAP). [Related PubChem assays: 1619 (Screening assay (M17LAP inhibitors).), 1445 (Screening assay (M1AAP inhibitors).)].
Chain of Aspartyl aminopeptidase (Q8I2J3 whole entry): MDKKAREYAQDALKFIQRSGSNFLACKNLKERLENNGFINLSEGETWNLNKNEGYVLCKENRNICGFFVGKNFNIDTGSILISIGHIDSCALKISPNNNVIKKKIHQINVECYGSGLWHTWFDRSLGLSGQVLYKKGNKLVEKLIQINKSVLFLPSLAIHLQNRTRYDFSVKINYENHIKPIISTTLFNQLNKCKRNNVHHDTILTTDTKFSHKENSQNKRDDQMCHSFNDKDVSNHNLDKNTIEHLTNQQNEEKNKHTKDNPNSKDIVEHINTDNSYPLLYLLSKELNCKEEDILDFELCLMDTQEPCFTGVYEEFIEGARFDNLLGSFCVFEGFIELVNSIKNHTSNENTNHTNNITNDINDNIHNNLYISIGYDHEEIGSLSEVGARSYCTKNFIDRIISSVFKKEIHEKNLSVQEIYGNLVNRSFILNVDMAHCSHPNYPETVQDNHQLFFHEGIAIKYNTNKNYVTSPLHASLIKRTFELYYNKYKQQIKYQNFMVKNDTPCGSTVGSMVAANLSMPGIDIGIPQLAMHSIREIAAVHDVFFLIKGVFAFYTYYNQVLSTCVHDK

The target of the next assay is Cytochrome P450 2C9 (Homo sapiens, UniProt P11712).
Chain of Cytochrome P450 2C9 (P11712 whole entry): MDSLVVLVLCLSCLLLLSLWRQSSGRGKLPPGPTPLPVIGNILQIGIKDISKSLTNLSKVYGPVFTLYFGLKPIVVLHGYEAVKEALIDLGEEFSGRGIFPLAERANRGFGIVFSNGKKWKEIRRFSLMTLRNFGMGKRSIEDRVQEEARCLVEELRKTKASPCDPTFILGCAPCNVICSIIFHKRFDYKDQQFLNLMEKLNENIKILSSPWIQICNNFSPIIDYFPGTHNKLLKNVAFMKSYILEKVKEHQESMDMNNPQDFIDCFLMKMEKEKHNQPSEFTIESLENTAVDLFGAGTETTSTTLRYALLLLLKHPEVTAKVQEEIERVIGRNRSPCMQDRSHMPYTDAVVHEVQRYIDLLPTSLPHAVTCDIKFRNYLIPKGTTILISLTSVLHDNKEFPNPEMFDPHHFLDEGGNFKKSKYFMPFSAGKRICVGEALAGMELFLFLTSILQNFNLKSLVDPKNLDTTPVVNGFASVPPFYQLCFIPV
Assay [6] concerns the target Glyceraldehyde-3-phosphate dehydrogenase (Homo sapiens, UniProt P04406).
Assay [7] addresses T3, Bcl-2-related protein A1 (Mus musculus, UniProt Q07440).
T3 sequence (Q07440 whole entry): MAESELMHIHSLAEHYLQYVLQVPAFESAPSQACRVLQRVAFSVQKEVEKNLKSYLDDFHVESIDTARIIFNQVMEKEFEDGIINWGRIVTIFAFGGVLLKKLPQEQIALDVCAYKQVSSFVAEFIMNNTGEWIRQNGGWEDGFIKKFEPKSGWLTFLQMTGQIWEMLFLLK
Briefly: small-molecule antagonists of Bfl-1/BH3 interaction – biochemical, TR-FRET, mouse Bfl-1, confirmation (AID 621).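 Note: TR-FRET binding of GST-Bfl-1 to FITC-labelled Bid peptide via terbium antibody.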 For orientation: TR-FRET usually uses a lanthanide donor and a delayed reading to cut background.

The target in assay [8] is T3, Bcl-2-related protein A1. In words: Bfl-1 binding inhibitors, SAR follow-up, biochemical, fluorescence polarization (AID 1070). Background: In fluorescence polarisation assays a small probe gives low polarisation when free and higher when bound to something large.
Assay [9] in a line: Luminescence Cell-Based Dose Confirmation to Identify Activators of 5'UTR Stem-Loop Driven Alpha-Synuclein mRNA Translation in H4 Neuroglioblastoma Cells. [Related pubchem assays: 1829 (Project Summary), 1814 (Primary HTS)]. The format is functional.
A short description of assay [10]: Luminescence Cell-Based Dose Response HTS to Identify Activators of Luciferase Translation or Activity in H4 […] Cells. [Related pubchem assays: 1829 (Project Summary), 1814 (Primary HTS)]. The format is functional.
Assay [11] can be described thus: Luminescence Cell-Based Dose Response to Identify Activators of 5'UTR Stem-Loop Driven Prion Protein mRNA Translation in H4-C Neuroglioblastoma Cells. [Related pubchem assays: 1829 (Project Summary), 1814 (Primary HTS)]. The format is functional.
The nature of assay [12]: Luminescence Cell-Based Dose Response to Identify Activators of Luciferase Translation or Activity in H4-C Neuroglioblastoma Cells. [Related pubchem assays: 1829 (Project Summary), 1814 (Primary HTS)]. The format is functional.
The next assay has as its system H4. In words: Luminescence Cell-Based Dose Response HTS to Identify Activators of 5'UTR Stem-Loop Driven Prion Protein mRNA Translation in H4 Neuroglioblastoma Cells. [Related pubchem assays: 1829 (Project Summary), 1814 (Primary HTS)]. Conditions: Homo sapiens. The format is functional.
In assay [13] the target is T4, Sphingosine 1-phosphate receptor 4 (Homo sapiens, UniProt O95977).
T4 sequence (O95977 whole entry): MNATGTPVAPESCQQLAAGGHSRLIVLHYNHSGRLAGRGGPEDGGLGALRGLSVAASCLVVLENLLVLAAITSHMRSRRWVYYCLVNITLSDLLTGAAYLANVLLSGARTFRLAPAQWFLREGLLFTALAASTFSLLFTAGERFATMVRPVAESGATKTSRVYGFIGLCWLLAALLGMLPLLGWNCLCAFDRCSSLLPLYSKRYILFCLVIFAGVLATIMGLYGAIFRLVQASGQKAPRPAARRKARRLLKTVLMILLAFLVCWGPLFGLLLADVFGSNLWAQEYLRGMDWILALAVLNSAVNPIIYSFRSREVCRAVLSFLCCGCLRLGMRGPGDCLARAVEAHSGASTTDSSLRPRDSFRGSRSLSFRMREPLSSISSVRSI
Briefly: Late stage fluorescence dose response cell-based screening assay for antagonists of the Sphingosine 1-Phosphate Receptor 4 (S1P4). [Related pubchem assays: 1524 (Confirmation screen (S1P4 antagonists).), 1510 (Primary screen (S1P4 antagonists).), 1853 (Summary AID (S1P4 antagonists).), 1692 (Dose response screen (S1P4 antagonists).)]. The class given is functional.

For a further assay, the system named is INS1. Briefly: INS-1E survival protection against cytokine death – cell-based, luminescence, retest, dose response (AID 449756).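 Note: cell death triggered by IL-1 beta plus TNF-alpha plus IFN-gamma mixture; protective hits raise ATP signal compared with cytokine alone wells.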 The class given is functional. Conditions: Rattus norvegicus.
Assay [14] concerns the target Sphingosine 1-phosphate receptor 1 (Homo sapiens, UniProt P21453). The class given is functional.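 Note: Tango beta-arrestin reporter U2OS cells stimulated with S1P near its EC80; inhibitor potency meaning antagonism of receptor activation by the natural agonist.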
The target of assay [15] is T4, Sphingosine 1-phosphate receptor 4. In words: Fluorescence dose response cell-based high throughput screening assay for antagonists of the Sphingosine 1-Phosphate Receptor 4 (S1P4). [Related pubchem assays: 1524 (Confirmation in triplicates.), 1510 (Primary screen.)]. The class given is functional.
Assay [16] has as its target Lytic switch protein BZLF1 (Epstein-Barr virus (strain B95-8) (HHV-4) (Human herpesvirus 4), UniProt P03206). Briefly: inhibition of BZLF1 ZTA DNA binding – biochemical, fluorescence polarization, Epstein-Barr virus, 1536-well, counter-screen for EBNA-1 inhibitor project, dose response (AID 2377).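 Note: fluorescence polarization of Cy5-labelled ZRE DNA probe bound by purified Zta.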 Also on record: species or system human gammaherpesvirus 4.
The target of assay [17] is Epstein-Barr nuclear antigen 1 (Epstein-Barr virus (strain B95-8) (HHV-4) (Human herpesvirus 4), UniProt P03211). Briefly: inhibition of EBV nuclear antigen 1 DNA binding – biochemical, fluorescence polarization, 1536-well, dose response (AID 2381).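 Note: fluorescence polarization of a Cy5 DNA probe bound by EBNA-1 protein.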 Also on record: species or system human gammaherpesvirus 4.
Chain of Epstein-Barr nuclear antigen 1 (P03211 whole entry): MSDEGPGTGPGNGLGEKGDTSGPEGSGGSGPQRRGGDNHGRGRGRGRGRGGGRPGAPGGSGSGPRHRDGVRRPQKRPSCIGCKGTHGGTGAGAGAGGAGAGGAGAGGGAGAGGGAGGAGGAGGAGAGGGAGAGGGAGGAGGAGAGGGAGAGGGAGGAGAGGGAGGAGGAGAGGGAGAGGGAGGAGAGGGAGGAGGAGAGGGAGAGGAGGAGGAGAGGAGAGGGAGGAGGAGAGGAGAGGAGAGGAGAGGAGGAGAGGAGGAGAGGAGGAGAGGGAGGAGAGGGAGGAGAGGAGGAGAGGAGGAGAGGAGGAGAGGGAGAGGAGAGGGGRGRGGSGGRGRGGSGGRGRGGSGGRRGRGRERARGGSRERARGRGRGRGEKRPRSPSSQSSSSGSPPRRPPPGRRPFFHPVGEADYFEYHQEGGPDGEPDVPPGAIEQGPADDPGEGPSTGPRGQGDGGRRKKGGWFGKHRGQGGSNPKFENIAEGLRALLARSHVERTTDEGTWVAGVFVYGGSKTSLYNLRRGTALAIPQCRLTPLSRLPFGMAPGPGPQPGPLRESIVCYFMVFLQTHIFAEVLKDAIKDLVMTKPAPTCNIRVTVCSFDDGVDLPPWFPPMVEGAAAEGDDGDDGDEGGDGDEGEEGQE

Activity calls are given as the source filed them.

Chain of Lytic switch protein BZLF1 (P03206 whole entry): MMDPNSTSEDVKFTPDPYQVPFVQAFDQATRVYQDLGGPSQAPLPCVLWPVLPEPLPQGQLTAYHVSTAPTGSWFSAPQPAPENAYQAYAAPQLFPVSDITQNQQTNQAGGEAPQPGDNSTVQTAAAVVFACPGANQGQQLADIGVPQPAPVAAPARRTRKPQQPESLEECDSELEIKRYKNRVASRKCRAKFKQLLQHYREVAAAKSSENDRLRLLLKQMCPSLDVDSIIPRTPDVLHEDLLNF
Chain of Sphingosine 1-phosphate receptor 2 (O95136 whole entry): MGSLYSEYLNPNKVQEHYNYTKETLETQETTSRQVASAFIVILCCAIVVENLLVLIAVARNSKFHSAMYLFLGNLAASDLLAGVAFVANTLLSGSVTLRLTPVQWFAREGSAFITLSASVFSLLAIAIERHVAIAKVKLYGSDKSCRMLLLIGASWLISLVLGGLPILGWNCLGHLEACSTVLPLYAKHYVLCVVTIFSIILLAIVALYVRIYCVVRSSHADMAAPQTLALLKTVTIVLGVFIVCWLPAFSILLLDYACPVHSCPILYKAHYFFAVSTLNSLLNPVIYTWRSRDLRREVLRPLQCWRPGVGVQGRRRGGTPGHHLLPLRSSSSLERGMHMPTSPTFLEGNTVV
Chain of Glyceraldehyde-3-phosphate dehydrogenase (P04406 whole entry): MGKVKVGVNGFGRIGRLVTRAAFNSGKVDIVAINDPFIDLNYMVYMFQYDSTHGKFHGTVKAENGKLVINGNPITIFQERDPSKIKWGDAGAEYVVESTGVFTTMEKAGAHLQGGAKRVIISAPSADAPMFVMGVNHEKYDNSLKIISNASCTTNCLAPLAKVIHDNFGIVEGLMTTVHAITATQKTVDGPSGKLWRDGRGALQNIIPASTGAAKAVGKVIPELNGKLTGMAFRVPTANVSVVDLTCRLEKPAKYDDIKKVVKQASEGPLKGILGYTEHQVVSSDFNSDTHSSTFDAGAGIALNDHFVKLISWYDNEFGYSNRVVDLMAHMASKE
Chain of Sphingosine 1-phosphate receptor 1 (P21453 whole entry): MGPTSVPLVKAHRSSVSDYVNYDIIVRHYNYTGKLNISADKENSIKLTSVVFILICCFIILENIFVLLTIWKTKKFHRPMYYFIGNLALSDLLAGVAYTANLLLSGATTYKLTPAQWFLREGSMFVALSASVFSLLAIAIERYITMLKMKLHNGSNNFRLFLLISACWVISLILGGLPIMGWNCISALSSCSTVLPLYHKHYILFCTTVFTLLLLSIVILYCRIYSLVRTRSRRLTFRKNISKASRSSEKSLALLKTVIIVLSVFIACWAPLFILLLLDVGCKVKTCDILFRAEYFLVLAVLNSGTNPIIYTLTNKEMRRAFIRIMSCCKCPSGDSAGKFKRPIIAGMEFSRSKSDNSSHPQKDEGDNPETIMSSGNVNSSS

The term EC50 denotes the concentration needed to bring the measured effect to its halfway point. For the molecule `Cc1cc(C(=O)CN2C(=O)C(=O)N(Cc3ccccc3)C2=O)c(C)n1Cc1ccc(F)cc1`, in assay [1], the EC50 is on record as > 30 µM (not active).
In general, CC50 refers to the concentration that lowers cell viability or growth by half. As usually defined, the IC50 is the point on the concentration scale where inhibition reaches its midpoint. Turning to `COc1ccc(-c2cc(-c3ccc(OC)c(OC)c3)[nH]n2)c(O)c1`, the CC50 in assay [2] was 46.3 µM (active). For the same molecule, in assay [3], the IC50 was 45.6 µM (active).
For `CCOCCO/C(O)=C1\C(C)=NC2=C(C(=O)CC(c3cccs3)C2)C1c1ccsc1` (stereo not given), the half-maximal inhibitory concentration (IC50) in assay [4] is recorded as > 69.5 µM (not active); in [5], > 40 µM (not active). For the same molecule, on Beta-galactosidase, the EC50 was > 40 µM (inactive).
What is called AC50 is the concentration at which the activity in the assay is half-maximal. With `CCOC(=O)c1c(-c2ccc(C)cc2)csc1NC(=O)C1CC=CCC1C(=O)O` (stereo not given), the results for the AC50 on Cytochrome P450 2C19 and on Cytochrome P450 2C9 were 28.2 µM (inconclusive) and 25.1 µM (inconclusive), respectively. Moreover, the IC50 on Procathepsin L is > 59.6 µM (not active); at Leucine aminopeptidase, 4.8 µM (active); against Aspartyl aminopeptidase, > 73.5 µM (not active).
`O=C1C(Cl)=C(N2CCOCC2)C(=O)N1c1ccc([N+](=O)[O-])cc1`: the half-inhibitory concentration (IC50) in [6] was > 100 µM (not active); at Bcl-2-related protein A1 [7], 2.29 µM (active); at Bcl-2-related protein A1 [8], 1.49 µM (active).
For `Cc1ccsc1C1NC(=O)c2c(sc3c2CCCC3)N1` (stereo not given), the 50% effective concentration (EC50) in assay [9] was 0.571 µM (active); in assay [10], < 0.1 µM (inconclusive); in assay [11], 1.12 µM (active); in assay [12] it was 0.643 µM (active); with H4 it was 48.3 µM (active).
Take `CCOC(=O)C(=Cc1ccc(Br)cc1)C(=O)OCC`: the IC50 is 0.887 µM (active) in assay [13], 9.77 µM (active) in [14] and 0.419 µM (active) in assay [15]. The AC50 with INS1 was 25 µM (active).
`Cc1ccc(NC(=O)CSc2ccc(-c3ccccn3)nn2)cc1F`: the IC50 is > 111 µM (not active) in [16] and > 16.4 µM (not active) in assay [17].

Values taken from ChEMBL document CHEMBL1201862, “PubChem BioAssay data set” (2004).
